# From ChEMBL document CHEMBL1201862, “PubChem BioAssay data set” (2004)
#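 Method: 48-hour compound exposure of cells in 96-well plates, five concentrations, linear interpolation of endpoints. The concentration for 50% growth inhibition is given as GI50.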 Activity calls are given as the source filed them. Rule as the data show it: active = GI50 up to about 1.1 µM and inactive = higher.
# Columns and labels:
# Test in all cases: growth of human tumour cells (NCI), 48 h
# NCI-H460 = test system: NCI-H460
# SF-295 = test system: SF-295
# IGROV-1 = test system: IGROV-1
# SW-620 = test system: SW-620
# HCT-116 = test system: HCT-116
# HOP-92 = test system: HOP-92
# PC-3 = test system: PC-3
# OVCAR-4 = test system: OVCAR-4
# RXF 393 = test system: RXF 393
# NCI-H522 = test system: NCI-H522
# SR = test system: SR
# TK-10 = test system: TK-10
# SN12C = test system: SN12C
# EKVX = test system: EKVX
# A549 = test system: A549
# MOLT-4 = test system: MOLT-4
# MCF7 = test system: MCF7
# SK-MEL-28 = test system: SK-MEL-28
# T47D = test system: T47D
Structure (SMILES),GI50 (NCI-H460),GI50 (SF-295),GI50 (IGROV-1),GI50 (SW-620),GI50 (HCT-116),GI50 (HOP-92),GI50 (PC-3),GI50 (OVCAR-4),GI50 (RXF 393),GI50 (NCI-H522),GI50 (SR),GI50 (TK-10),GI50 (SN12C),GI50 (EKVX),GI50 (A549),GI50 (MOLT-4),GI50 (MCF7),GI50 (SK-MEL-28),GI50 (T47D)
CC(C)(CN1CCCCC1)C(=O)CC(SCCS(=O)(=O)O)c1ccccc1 (stereo not given),11.9 µM (inactive),10.9 µM (inactive),26.4 µM (inactive),11.1 µM (inactive),5.9 µM (inactive),5.64 µM (inactive),22.9 µM (inactive),17.6 µM (inactive),10.8 µM (inactive),3.11 µM (inactive),0.466 µM (active),16.9 µM (inactive),20 µM (inactive),14.1 µM (inactive),27.4 µM (inactive),11.3 µM (inactive),10.2 µM (inactive),,
Cc1c(C#N)c(N)n(C2OC(CO)C(O)C(O)C2O)c(=S)c1C#N (stereo not given),> 100 µM (inactive),> 100 µM (inactive),> 100 µM (inactive),> 100 µM (inactive),> 100 µM (inactive),> 100 µM (inactive),> 100 µM (inactive),> 100 µM (inactive),> 100 µM (inactive),> 100 µM (inactive),> 100 µM (inactive),> 100 µM (inactive),> 100 µM (inactive),> 100 µM (inactive),> 100 µM (inactive),> 100 µM (inactive),> 100 µM (inactive),> 100 µM (inactive),
COC1(OC)CCCc2c1no[n+]2[O-],> 100 µM (inactive),> 100 µM (inactive),> 100 µM (inactive),> 100 µM (inactive),> 100 µM (inactive),,> 100 µM (inactive),> 100 µM (inactive),> 100 µM (inactive),> 100 µM (inactive),> 100 µM (inactive),> 100 µM (inactive),> 100 µM (inactive),> 100 µM (inactive),> 100 µM (inactive),> 100 µM (inactive),> 100 µM (inactive),> 100 µM (inactive),
O=c1c2sc3nc(NCCN4CCCCC4)ncc3c2ncn1-c1ccccc1,55.6 µM (inactive),61.8 µM (inactive),40 µM (inactive),46.7 µM (inactive),33.1 µM (inactive),27.3 µM (inactive),59.3 µM (inactive),> 100 µM (inactive),20.6 µM (inactive),41 µM (inactive),> 100 µM (inactive),48.3 µM (inactive),> 100 µM (inactive),,40.6 µM (inactive),67.8 µM (inactive),,55.2 µM (inactive),35.8 µM (inactive)
CCCCCC(C/C=N/N(C)C)C(O)(C(F)(F)F)C(F)(F)F (stereo not given),36.4 µM (inactive),42.5 µM (inactive),19 µM (inactive),38 µM (inactive),32 µM (inactive),33 µM (inactive),20.8 µM (inactive),53.2 µM (inactive),32 µM (inactive),19.7 µM (inactive),34.8 µM (inactive),54.2 µM (inactive),28.2 µM (inactive),41.6 µM (inactive),37.2 µM (inactive),29.4 µM (inactive),,45.8 µM (inactive),25.9 µM (inactive)
CCOC(=O)CCc1c(C(=O)OCC)[nH]c(/C=C2\NC(=O)C(C)=C2CC)c1C,44.3 µM (inactive),17.8 µM (inactive),4.59 µM (inactive),,33.7 µM (inactive),16.1 µM (inactive),26.4 µM (inactive),20.4 µM (inactive),23.2 µM (inactive),14.5 µM (inactive),,,32.6 µM (inactive),22.2 µM (inactive),40.1 µM (inactive),> 100 µM (inactive),41 µM (inactive),51.8 µM (inactive),10.1 µM (inactive)
C=CCNC(=O)NCCCC(NC(C)=O)C(=O)NCc1ccccc1 (stereo not given),> 100 µM (inactive),> 100 µM (inactive),> 100 µM (inactive),> 100 µM (inactive),,> 100 µM (inactive),,> 100 µM (inactive),> 100 µM (inactive),> 100 µM (inactive),,> 100 µM (inactive),> 100 µM (inactive),> 100 µM (inactive),> 100 µM (inactive),> 100 µM (inactive),,> 100 µM (inactive),
O=c1[nH]c2ccccc2c2nc3ccccc3n12,2.54 µM (inactive),62.4 µM (inactive),0.61 µM (active),61.2 µM (inactive),19.1 µM (inactive),13.9 µM (inactive),> 100 µM (inactive),2 µM (inactive),28.7 µM (inactive),7.21 µM (inactive),,6.75 µM (inactive),> 100 µM (inactive),3.89 µM (inactive),33.2 µM (inactive),36.9 µM (inactive),21.8 µM (inactive),,> 100 µM (inactive)
CN1CC[C@@]2(c3cccc(O)c3)CC(=O)/C(=C/c3ccc(Cl)c(Cl)c3)[C@H]1C2,2.11 µM (inactive),2.03 µM (inactive),2.23 µM (inactive),1.68 µM (inactive),,4.49 µM (inactive),1.57 µM (inactive),4.59 µM (inactive),2.66 µM (inactive),,1.14 µM (inactive),14 µM (inactive),2.04 µM (inactive),8.79 µM (inactive),3.28 µM (inactive),3.15 µM (inactive),,1.93 µM (inactive),
O=C(O)[C@@H](NS(=O)(=O)c1ccc2ccccc2c1)c1ccccc1,> 100 µM (inactive),,> 100 µM (inactive),,,> 100 µM (inactive),,> 100 µM (inactive),> 100 µM (inactive),> 100 µM (inactive),,,> 100 µM (inactive),,,> 100 µM (inactive),,> 100 µM (inactive),
O=c1oc(=O)c2oc3ccccc3oc1=2,> 100 µM (inactive),> 100 µM (inactive),> 100 µM (inactive),> 100 µM (inactive),> 100 µM (inactive),> 100 µM (inactive),,> 100 µM (inactive),> 100 µM (inactive),> 100 µM (inactive),> 100 µM (inactive),> 100 µM (inactive),> 100 µM (inactive),> 100 µM (inactive),> 100 µM (inactive),> 100 µM (inactive),,> 100 µM (inactive),
COC(=O)/C=C/c1cc(O)c2c(c1)[C@H](C(=O)OC)[C@@H](c1ccc(O)c(O)c1)O2,2.56 µM (inactive),0.476 µM (active),0.221 µM (active),0.0428 µM (active),0.0499 µM (active),9.89 µM (inactive),1.57 µM (inactive),2.76 µM (inactive),,0.0706 µM (active),0.0316 µM (active),24.7 µM (inactive),0.18 µM (active),8.67 µM (inactive),0.877 µM (active),0.0753 µM (active),0.108 µM (active),0.132 µM (active),
CC(C)N1CC2CN(Cc3ccccc3)CC(C1)C2=O,> 100 µM (inactive),> 100 µM (inactive),> 100 µM (inactive),> 100 µM (inactive),> 100 µM (inactive),> 100 µM (inactive),> 100 µM (inactive),> 100 µM (inactive),> 100 µM (inactive),> 100 µM (inactive),> 100 µM (inactive),> 100 µM (inactive),> 100 µM (inactive),,> 100 µM (inactive),> 100 µM (inactive),> 100 µM (inactive),> 100 µM (inactive),
c1cnc2c(c1)-n1cccc1C1(CCCCC1)NN2,61.5 µM (inactive),69.2 µM (inactive),,> 100 µM (inactive),59.8 µM (inactive),,,> 100 µM (inactive),,63.1 µM (inactive),40 µM (inactive),75.3 µM (inactive),> 100 µM (inactive),82.2 µM (inactive),54 µM (inactive),24.5 µM (inactive),,> 100 µM (inactive),
N#CC(c1ccccc1)N(CCc1ccccc1)C(=O)c1ccc(C(=O)N(CCc2ccccc2)C(C#N)c2ccccc2)cc1 (stereo not given),18.5 µM (inactive),18.5 µM (inactive),23.9 µM (inactive),22.9 µM (inactive),14.3 µM (inactive),12.9 µM (inactive),21.7 µM (inactive),18.9 µM (inactive),21.3 µM (inactive),,,13.9 µM (inactive),19.5 µM (inactive),34.4 µM (inactive),26.7 µM (inactive),> 10 µM (inactive),30.3 µM (inactive),22.8 µM (inactive),16.9 µM (inactive)
CCc1ccc2c(c1)CC1(C2)Cc2cc3c(cc2C1)C(=O)CC3 (stereo not given),,19.1 µM (inactive),17.3 µM (inactive),,12.1 µM (inactive),14.7 µM (inactive),16.3 µM (inactive),15 µM (inactive),36.9 µM (inactive),20.3 µM (inactive),,38.6 µM (inactive),27 µM (inactive),> 100 µM (inactive),24.2 µM (inactive),,5.08 µM (inactive),,12.1 µM (inactive)
CN1CCC23c4c5ccc(O)c4OC2C(=NN=C2CCC4(O)C6Cc7ccc(O)c8c7C4(CCN6C)C2O8)CCC3(O)C1C5 (stereo not given),> 100 µM (inactive),> 100 µM (inactive),> 100 µM (inactive),> 100 µM (inactive),,> 100 µM (inactive),,> 100 µM (inactive),,> 100 µM (inactive),,> 100 µM (inactive),> 100 µM (inactive),> 100 µM (inactive),> 100 µM (inactive),> 100 µM (inactive),,> 100 µM (inactive),
